Assay results as given in the NIST ThermoML archive (doi:10.1016/j.fluid.2005.08.011).

Conditions: Gas, isochoric method

CCF [fluoroethane]
Conditions | mass density [kg/m3]
300.16 K, 642.2 kPa | 13.92
305.16 K, 656.6 kPa | 13.917
310.14 K, 670.4 kPa | 13.913
312.16 K, 1205.6 kPa | 27.61
314.16 K, 1218.3 kPa | 27.607
315.15 K, 684.8 kPa | 13.91
316.15 K, 1231.8 kPa | 27.605
318.15 K, 1244.1 kPa | 27.602
320.14 K, 698.5 kPa | 13.906
322.16 K, 1268.7 kPa | 27.596
324.15 K, 1614.6 kPa | 37.54
325.14 K, 712.3 kPa | 13.903
326.14 K, 1634.4 kPa | 37.536
326.16 K, 1293.4 kPa | 27.591
328.15 K, 1652.5 kPa | 37.533
330.15 K, 1670.2 kPa | 37.529
330.16 K, 726.1 kPa | 13.899
330.16 K, 1317.6 kPa | 27.585
332.15 K, 2022.6 kPa | 48.84
334.16 K, 1341.9 kPa | 27.58
334.16 K, 1704.9 kPa | 37.521
334.16 K, 2047.7 kPa | 48.835
335.15 K, 739.5 kPa | 13.896
336.16 K, 2072.5 kPa | 48.83
338.12 K, 2287.8 kPa | 56.23
338.16 K, 1739 kPa | 37.514
338.17 K, 1365.6 kPa | 27.574
338.2 K, 2096.6 kPa | 48.825
339.16 K, 2108.2 kPa | 48.823
340.12 K, 2318.8 kPa | 56.224
340.15 K, 752.5 kPa | 13.892
340.15 K, 2419 kPa | 60.32
340.16 K, 2120.6 kPa | 48.821
342.12 K, 2347.8 kPa | 56.219
342.16 K, 1388.9 kPa | 27.569
342.16 K, 2144.2 kPa | 48.816
342.16 K, 2450.7 kPa | 60.314
342.17 K, 1773.5 kPa | 37.506
344.12 K, 2376.7 kPa | 56.213
344.16 K, 2167.5 kPa | 48.811
344.16 K, 2482.2 kPa | 60.308
346.12 K, 2404.5 kPa | 56.208
346.14 K, 2707.5 kPa | 68.66
346.15 K, 768.9 kPa | 13.888
346.15 K, 1412.4 kPa | 27.563
346.15 K, 2513.1 kPa | 60.302
346.16 K, 1806.7 kPa | 37.499
346.16 K, 2190.7 kPa | 48.806
347.15 K, 2725.9 kPa | 68.657
348.13 K, 2432.7 kPa | 56.202
348.15 K, 2743.8 kPa | 68.653
348.16 K, 2214 kPa | 48.801
348.16 K, 2543 kPa | 60.296
350.15 K, 1435.8 kPa | 27.558
350.15 K, 2460.5 kPa | 56.196
350.15 K, 2779.8 kPa | 68.646
350.16 K, 1840.5 kPa | 37.491
350.16 K, 2237.2 kPa | 48.796
350.16 K, 2573.4 kPa | 60.29
350.16 K, 2978.2 kPa | 78.21
351.16 K, 2999.9 kPa | 78.206
352.15 K, 2488.2 kPa | 56.191
352.15 K, 2815 kPa | 68.639
352.16 K, 2260.1 kPa | 48.791
352.16 K, 2603.3 kPa | 60.284
352.17 K, 3021.2 kPa | 78.202
353.14 K, 3180.2 kPa | 85.66
353.16 K, 3042.3 kPa | 78.198
354.15 K, 3204.5 kPa | 85.656
354.16 K, 790.7 kPa | 13.883
354.16 K, 1458.8 kPa | 27.552
354.16 K, 1873.7 kPa | 37.484
354.16 K, 2283 kPa | 48.787
354.16 K, 2515.3 kPa | 56.185
354.16 K, 2633.4 kPa | 60.278
354.16 K, 2850.7 kPa | 68.633
354.17 K, 3062.9 kPa | 78.194
355.15 K, 3227.8 kPa | 85.651
356.14 K, 2542.3 kPa | 56.18
356.15 K, 2663.1 kPa | 60.272
356.15 K, 2885.7 kPa | 68.626
356.16 K, 2305.7 kPa | 48.782
356.16 K, 3104.4 kPa | 78.187
356.26 K, 3251.2 kPa | 85.647
357.26 K, 3274.8 kPa | 85.642
358.15 K, 1481.8 kPa | 27.547
358.15 K, 1906.7 kPa | 37.477
358.15 K, 2569.2 kPa | 56.174
358.15 K, 2920 kPa | 68.619
358.15 K, 3297.7 kPa | 85.639
358.16 K, 2328.4 kPa | 48.777
358.16 K, 2692.5 kPa | 60.266
358.16 K, 3145.7 kPa | 78.179
358.16 K, 3506.4 kPa | 97.915
359.16 K, 3534.2 kPa | 97.91
360.15 K, 2595.9 kPa | 56.168
360.15 K, 2954.3 kPa | 68.612
360.16 K, 2721.3 kPa | 60.26
360.16 K, 3186 kPa | 78.171
360.16 K, 3343.9 kPa | 85.63
360.16 K, 3562.2 kPa | 97.905
360.17 K, 2350.8 kPa | 48.772
360.17 K, 3660.7 kPa | 104.59
361.15 K, 3589.9 kPa | 97.9
361.16 K, 3691 kPa | 104.585
362.14 K, 2622.7 kPa | 56.163
362.15 K, 811.8 kPa | 13.877
362.15 K, 2988.3 kPa | 68.605
362.15 K, 3226.2 kPa | 78.163
362.15 K, 3389.2 kPa | 85.622
362.15 K, 3617 kPa | 97.896
362.16 K, 1505 kPa | 27.541
362.16 K, 1939.6 kPa | 37.469
362.16 K, 3721.4 kPa | 104.58
362.17 K, 2373 kPa | 48.767
362.17 K, 2750.9 kPa | 60.254
363.15 K, 3644.5 kPa | 97.891
363.16 K, 3751.4 kPa | 104.574
364.15 K, 2649.2 kPa | 56.157
364.15 K, 3023 kPa | 68.598
364.15 K, 3434.4 kPa | 85.613
364.15 K, 3780.8 kPa | 104.569
364.16 K, 2394.9 kPa | 48.762
364.16 K, 3266.5 kPa | 78.156
364.16 K, 3671.6 kPa | 97.886
364.17 K, 2779.6 kPa | 60.248
365.16 K, 3698.9 kPa | 97.881
365.16 K, 3810.4 kPa | 104.564
366.14 K, 1527.7 kPa | 27.536
366.14 K, 2675.7 kPa | 56.152
366.15 K, 1971.5 kPa | 37.462
366.15 K, 3056.7 kPa | 68.592
366.15 K, 3306.2 kPa | 78.148
366.15 K, 3478.5 kPa | 85.605
366.15 K, 3725.2 kPa | 97.876
366.15 K, 3839.8 kPa | 104.559
366.16 K, 2417.4 kPa | 48.757
366.16 K, 2808.4 kPa | 60.242
367.15 K, 3751.8 kPa | 97.871
367.15 K, 3869 kPa | 104.554
368.14 K, 2702 kPa | 56.146
368.14 K, 3090.7 kPa | 68.585
368.15 K, 3346 kPa | 78.14
368.15 K, 3523.3 kPa | 85.596
368.15 K, 3898.1 kPa | 104.548
368.16 K, 2439.4 kPa | 48.753
368.16 K, 2837.3 kPa | 60.236
368.16 K, 3778.8 kPa | 97.866
369.14 K, 3805.1 kPa | 97.861
369.15 K, 3927.3 kPa | 104.543
370.12 K, 1550.1 kPa | 27.531
370.13 K, 3123.8 kPa | 68.578
370.14 K, 2728 kPa | 56.14
370.14 K, 3568 kPa | 85.588
370.14 K, 3831.8 kPa | 97.857
370.15 K, 833.2 kPa | 13.872
370.15 K, 2461.8 kPa | 48.748
370.15 K, 3385.9 kPa | 78.132
370.15 K, 3956.2 kPa | 104.538
370.16 K, 2004 kPa | 37.454
370.16 K, 2865.8 kPa | 60.23
